Measured values from patent publication US10457710B2, “Antimicrobial peptides, their variants and uses” (priority 2015, dated 2019).
Where a SMILES comes first, the peptide text is derived from it. [ ]: non-standard residue; d: D form.

Assays:
Format in all cases: cell-based
C. parapsilosis = test: MIC, clinical yeast strains
Procedure, shortened: (§1)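 MIC = lowest peptide concentration without visual growth after 20–24 h at 37° C. Range 0.125–128 μg/ml, inoculum 5.0×10^5 cfu/ml, microdilution format. Antifungal tests used potato dextrose broth; bacterial tests used MH broth.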

C. glabrata = test: MIC, clinical yeast strains
Procedure, shortened: as §1

Candida albicans = test: MIC, clinical yeast strains
Procedure, shortened: as §1

C. quillermondiae = test: MIC, clinical yeast strains; parameters: Minimum inhibitory concentration: unit: μg/ml
Procedure, shortened: as §1

[1] = system: clinical strains of Serratia marcescens; test: MIC, microdilution, clinical strains; settings: 0.02% BSA, 0.2% acetic acid
Procedure, shortened: (§2)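 Broth microdilution with inocula adjusted to 5.0×10^5 cfu/ml; peptides tested at 0.125 to 128 μg/ml and incubated at 37° C for 20 to 24 hours. Bacteria were grown in Mueller Hinton broth, yeasts in potato dextrose broth. MIC was the lowest concentration showing no visible growth.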

[2] = system: clinical strains of K. pneumoniae; test: MIC, microdilution, clinical strains; settings: 0.02% BSA, 0.2% acetic acid
Procedure, shortened: as §2

[3] = system: clinical strains of E. cloacae; test: MIC, microdilution, clinical strains; settings: 0.02% BSA, 0.2% acetic acid
Procedure, shortened: as §2

[4] = system: clinical strains of S. pneumoniae; test: MIC, microdilution, clinical strains; settings: 0.02% BSA, 0.2% acetic acid
Procedure, shortened: as §2

[5] = system: clinical strains of P. aeruginosa; test: MIC, microdilution, clinical strains; settings: 0.02% BSA, 0.2% acetic acid
Procedure, shortened: as §2

[6] = system: clinical strains of S. aureus; test: MIC, microdilution, clinical strains; settings: 0.02% BSA, 0.2% acetic acid
Procedure, shortened: as §2

[7] = system: clinical strains of E. coli; test: MIC, microdilution, clinical strains; settings: microdilution, Muller Hinton broth-cation adjusted, 0.02% BSA, 0.2% acetic acid
Procedure, shortened: as §2

[8] = system: clinical strains of Proteus mirabilis; test: MIC, microdilution, clinical strains; settings: 0.02% BSA, 0.2% acetic acid
Procedure, shortened: as §2

[9] = clinical yeast strain 1, D-form peptide, concentrations tested 0.125 to 128 μg/ml
[10] = clinical yeast strain 2, D-form peptide, concentrations tested 0.125 to 128 μg/ml
[11] = clinical yeast strain 3, D-form peptide, concentrations tested 0.125 to 128 μg/ml
[12] = clinical yeast strain 4, D-form peptide, concentrations tested 0.125 to 128 μg/ml
[13] = Serratia marcescens strain 1, Muller Hinton broth-cation adjusted
[14] = Serratia marcescens strain 2, Muller Hinton broth-cation adjusted
[15] = Serratia marcescens strain 3, Muller Hinton broth-cation adjusted
[16] = Serratia marcescens strain 4, Muller Hinton broth-cation adjusted
[17] = Serratia marcescens strain 5, Muller Hinton broth-cation adjusted
[18] = Klebsiella pneumoniae strain 1, Muller Hinton broth-cation adjusted
[19] = Klebsiella pneumoniae strain 2, Muller Hinton broth-cation adjusted
[20] = Klebsiella pneumoniae strain 3, Muller Hinton broth-cation adjusted
[21] = Klebsiella pneumoniae strain 4, Muller Hinton broth-cation adjusted
[22] = Klebsiella pneumoniae strain 5, Muller Hinton broth-cation adjusted
[23] = Enterobacter cloacae strain 1, Muller Hinton broth-cation adjusted
[24] = Enterobacter cloacae strain 2, Muller Hinton broth-cation adjusted
[25] = Enterobacter cloacae strain 3, Muller Hinton broth-cation adjusted
[26] = Enterobacter cloacae strain 4, Muller Hinton broth-cation adjusted
[27] = Enterobacter cloacae strain 5, Muller Hinton broth-cation adjusted
[28] = Streptococcus pneumoniae strain 1, Muller Hinton broth-cation adjusted
[29] = Streptococcus pneumoniae strain 2, Muller Hinton broth-cation adjusted
[30] = Streptococcus pneumoniae strain 3, Muller Hinton broth-cation adjusted
[31] = Streptococcus pneumoniae strain 4, Muller Hinton broth-cation adjusted
[32] = Streptococcus pneumoniae strain 5, Muller Hinton broth-cation adjusted
[33] = Pseudomonas aeruginosa strain 1, Muller Hinton broth-cation adjusted
[34] = Pseudomonas aeruginosa strain 2, Muller Hinton broth-cation adjusted
[35] = Pseudomonas aeruginosa strain 3, Muller Hinton broth-cation adjusted
[36] = Pseudomonas aeruginosa strain 4, Muller Hinton broth-cation adjusted
[37] = Pseudomonas aeruginosa strain 5, Muller Hinton broth-cation adjusted
[38] = Staphylococcus aureus strain 1, Muller Hinton broth-cation adjusted
[39] = Staphylococcus aureus strain 2, Muller Hinton broth-cation adjusted
[40] = Staphylococcus aureus strain 3, Muller Hinton broth-cation adjusted
[41] = Staphylococcus aureus strain 4, Muller Hinton broth-cation adjusted
[42] = Staphylococcus aureus strain 5, Muller Hinton broth-cation adjusted
[43] = Proteus mirabilis strain 1, Muller Hinton broth-cation adjusted
[44] = Proteus mirabilis strain 2, Muller Hinton broth-cation adjusted
[45] = Proteus mirabilis strain 3, Muller Hinton broth-cation adjusted
[46] = Proteus mirabilis strain 4, Muller Hinton broth-cation adjusted
[47] = Proteus mirabilis strain 5, Muller Hinton broth-cation adjusted

With CC(C)C[C@@H](NC(=O)[C@@H](CCCCN)NC(=O)[C@@H](Cc1c[nH]c2ccccc12)NC(=O)[C@@H](CCCCN)NC(=O)[C@@H](C)NC(=O)[C@@H](Cc1c[nH]cn1)NC(=O)[C@@H](CC(C)C)NC(=O)[C@@H](CCCNC(=N)N)NC(=O)[C@@H](Cc1c[nH]c2ccccc12)NC(=O)[C@H](N)Cc1c[nH]c2ccccc12)C(=O)N[C@H](Cc1c[nH]c2ccccc12)C(=O)O [Chain109D] (H-[dW][dW][dR][dL][dH][dA][dK][dW][dK][dL][dW]-OH) the “Minimum inhibitory concentration, C. parapsilosis strain 1” value (C. parapsilosis; [9]) was 128, the “Minimum inhibitory concentration, C. parapsilosis strain 2” value (C. parapsilosis; [10]) was 128 and the “Minimum inhibitory concentration, C. parapsilosis strain 3” value (C. parapsilosis; [11]) was 128. The “Minimum inhibitory concentration, C. parapsilosis strain 4” value (C. parapsilosis; [12]) was 8, the “Minimum inhibitory concentration, C. glabrata strain 1” value (C. glabrata; [9]) was 128 and the “Minimum inhibitory concentration, C. glabrata strain 2” value (C. glabrata; [10]) was 128. The “Minimum inhibitory concentration, C. glabrata strain 3” value (C. glabrata; [11]) was 16, the “Minimum inhibitory concentration, C. glabrata strain 4” value (C. glabrata; [12]) was 64 and the “Minimum inhibitory concentration, Candida albicans strain 1” value (Candida albicans; [9]) was 128. The “Minimum inhibitory concentration, Candida albicans strain 2” value (Candida albicans; [10]) was 128, the “Minimum inhibitory concentration, Candida albicans strain 3” value (Candida albicans; [11]) was 128 and the “Minimum inhibitory concentration, Candida albicans strain 4” value (Candida albicans; [12]) was 128. The “Minimum inhibitory concentration, Candida albicans strain 5” value (Candida albicans; clinical yeast strain 5, D-form peptide, concentrations tested 0.125 to 128 μg/ml) was 128, the “Minimum inhibitory concentration, C. quillermondiae strain 1” value (C. quillermondiae; [9]) was 128 and the Minimum inhibitory concentration [1, 13] was greater than 128. The Minimum inhibitory concentration [1, 14] was greater than 128, the Minimum inhibitory concentration [1, 15] was greater than 128 and the Minimum inhibitory concentration [1, 16] was greater than 128. It also gave a Minimum inhibitory concentration [1, 17] of 64, a Minimum inhibitory concentration [2, 18] of 16 and a Minimum inhibitory concentration [2, 19] of 8. For the same compound, the Minimum inhibitory concentration [2, 20] was 8, the Minimum inhibitory concentration [2, 21] was 16 and the Minimum inhibitory concentration [2, 22] was 8. The Minimum inhibitory concentration [3, 23] was 4, the Minimum inhibitory concentration [3, 24] was 8 and the Minimum inhibitory concentration [3, 25] was 8. It also gave a Minimum inhibitory concentration [3, 26] of 8, a Minimum inhibitory concentration [3, 27] of 4 and a Minimum inhibitory concentration [4, 28] of 16. It also gave a Minimum inhibitory concentration [4, 29] of 8, a Minimum inhibitory concentration [4, 30] of 2 and a Minimum inhibitory concentration [4, 31] of 8. For the same compound, the Minimum inhibitory concentration [4, 32] was 8, the Minimum inhibitory concentration [5, 33] was 16 and the Minimum inhibitory concentration [5, 34] was 16. The Minimum inhibitory concentration [5, 35] was 16, the Minimum inhibitory concentration [5, 36] was 16 and the Minimum inhibitory concentration [5, 37] was 8. The Minimum inhibitory concentration [6, 38] was 2, the Minimum inhibitory concentration [6, 39] was 4 and the Minimum inhibitory concentration [6, 40] was 2. It also gave a Minimum inhibitory concentration [6, 41] of 2, a Minimum inhibitory concentration [6, 42] of 2 and a Minimum inhibitory concentration ([7]; Escherichia coli strain 1) of 16. It also gave a Minimum inhibitory concentration ([7]; Escherichia coli strain 2) of 4, a Minimum inhibitory concentration ([7]; Escherichia coli strain 3) of 4 and a Minimum inhibitory concentration ([7]; Escherichia coli strain 4) of 4. For the same compound, the Minimum inhibitory concentration ([7]; Escherichia coli strain 5) was 4, the Minimum inhibitory concentration [8, 43] was greater than 128 and the Minimum inhibitory concentration [8, 44] was 64. It also gave a Minimum inhibitory concentration [8, 45] of 64, a Minimum inhibitory concentration [8, 46] greater than 128 and a Minimum inhibitory concentration [8, 47] greater than 128.

CC(C)C[C@@H](NC(=O)[C@@H](CCCCN)NC(=O)[C@@H](CCCCN)NC(=O)[C@@H](Cc1ccccc1)NC(=O)[C@@H](CC(C)C)NC(=O)[C@@H](Cc1c[nH]c2ccccc12)NC(=O)[C@@H](CCCNC(=N)N)NC(=O)[C@@H](Cc1c[nH]c2ccccc12)NC(=O)[C@@H](CCCCN)NC(=O)[C@@H](CCCNC(=N)N)NC(=O)[C@H](N)CCCCN)C(=O)O [Chain310D] (H-[dK][dR][dK][dW][dR][dW][dL][dF][dK][dK][dL]-OH) showed a Minimum inhibitory concentration (C. parapsilosis; C. parapsilosis clinical yeast strain 1) of 64, a Minimum inhibitory concentration (C. parapsilosis; C. parapsilosis clinical yeast strain 2) of 64 and a Minimum inhibitory concentration (C. parapsilosis; C. parapsilosis clinical yeast strain 3) of 64. For the same compound, the Minimum inhibitory concentration (C. parapsilosis; C. parapsilosis clinical yeast strain 4) was 16, the Minimum inhibitory concentration (C. glabrata; C. glabrata clinical yeast strain 1) was 16 and the Minimum inhibitory concentration (C. glabrata; C. glabrata clinical yeast strain 2) was 16. For the same compound, the Minimum inhibitory concentration (C. glabrata; C. glabrata clinical yeast strain 3) was 128, the Minimum inhibitory concentration (C. glabrata; C. glabrata clinical yeast strain 4) was 128 and the Minimum inhibitory concentration (Candida albicans; Candida albicans clinical yeast strain 1) was 16. For the same compound, the Minimum inhibitory concentration (Candida albicans; Candida albicans clinical yeast strain 2) was 16, the Minimum inhibitory concentration (Candida albicans; Candida albicans clinical yeast strain 3) was 16 and the Minimum inhibitory concentration (Candida albicans; Candida albicans clinical yeast strain 4) was 16. It also gave a Minimum inhibitory concentration (Candida albicans; Candida albicans clinical yeast strain 5) of 16, a Minimum inhibitory concentration (C. quillermondiae; C. quillermondiae clinical yeast strain 1) of 8 and a Minimum inhibitory concentration [1, 13] greater than 128. The Minimum inhibitory concentration [1, 14] was greater than 128, the Minimum inhibitory concentration [1, 15] was greater than 128 and the Minimum inhibitory concentration [1, 16] was greater than 128. The Minimum inhibitory concentration [1, 17] was greater than 128, the Minimum inhibitory concentration [2, 18] was 64 and the Minimum inhibitory concentration [2, 19] was 64. For the same compound, the Minimum inhibitory concentration [2, 20] was 128, the Minimum inhibitory concentration [2, 21] was 64 and the Minimum inhibitory concentration [2, 22] was 32. It also gave a Minimum inhibitory concentration [3, 23] of 128, a Minimum inhibitory concentration [3, 24] of 64 and a Minimum inhibitory concentration [3, 25] of 16. It also gave a Minimum inhibitory concentration [3, 26] of 8, a Minimum inhibitory concentration [3, 27] of 16 and a Minimum inhibitory concentration [4, 28] of 128. For the same compound, the Minimum inhibitory concentration [4, 29] was 128, the Minimum inhibitory concentration [4, 30] was 128 and the Minimum inhibitory concentration [4, 31] was 128. The Minimum inhibitory concentration [4, 32] was 64, the Minimum inhibitory concentration [5, 33] was 8 and the Minimum inhibitory concentration [5, 34] was 16. For the same compound, the Minimum inhibitory concentration [5, 35] was 16, the Minimum inhibitory concentration [5, 36] was 8 and the Minimum inhibitory concentration [5, 37] was 4. For the same compound, the Minimum inhibitory concentration [6, 38] was 8, the Minimum inhibitory concentration [6, 39] was 16 and the Minimum inhibitory concentration [6, 40] was 8. For the same compound, the Minimum inhibitory concentration [6, 41] was 8, the Minimum inhibitory concentration [6, 42] was 4 and the Minimum inhibitory concentration ([7]; Escherichia coli strain 1) was 4. It also gave a Minimum inhibitory concentration ([7]; Escherichia coli strain 2) of 32, a Minimum inhibitory concentration ([7]; Escherichia coli strain 3) of 16 and a Minimum inhibitory concentration ([7]; Escherichia coli strain 4) of 16. The Minimum inhibitory concentration ([7]; Escherichia coli strain 5) was 16, the Minimum inhibitory concentration [8, 43] was greater than 128 and the Minimum inhibitory concentration [8, 44] was greater than 128. It also gave a Minimum inhibitory concentration [8, 45] greater than 128, a Minimum inhibitory concentration [8, 46] greater than 128 and a Minimum inhibitory concentration [8, 47] greater than 128.
